PubChem BioAssay AID248 (DTP/NCI, 2004)
Several values for one entry are separate records, joined by “and”; a condition that tells them apart may be missing. Equal values may be shown once. Inconclusive results and toxic doses are left out. Rule as the data show it: active = T/C of 150% or more; inactive = T/C below 125%.

Test system: L1210 leukemia ip in BDF1 mice, survival T/C
Experiment: NCI In Vivo Anticancer Drug Screen. Data for tumor model L1210 Leukemia (intraperitoneal) in B6D2F1 (BDF1) mice
Settings: endpoint: mean survival time, higher = longer survival
In short: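 Antitumor effect is assessed in tumor-bearing animals. Survival in the compound arm is compared with a vehicle-dosed control arm and expressed as their quotient.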

[1] = dose: 100.0 mg/kg/injection, schedule: Q04DX002 (ip), vehicle: saline with Tween-80
[2] = dose: 100.0 mg/kg/injection, schedule: Q04DX003 (ip), vehicle: Klucel (hydroxypropylcellulose) (HPC)
[3] = dose: 200.0 mg/kg/injection, schedule: Q04DX003 (ip), vehicle: Klucel (hydroxypropylcellulose) (HPC)
[4] = dose: 400.0 mg/kg/injection, schedule: Q04DX003 (ip), vehicle: Klucel (hydroxypropylcellulose) (HPC)
[5] = dose: 100.0 mg/kg/injection, schedule: Q01DX009 (ip), vehicle: saline with Tween-80
[6] = dose: 50.0 mg/kg/injection, schedule: Q01DX009 (ip), vehicle: saline
[7] = dose: 100.0 mg/kg/injection, schedule: Q01DX009 (ip), vehicle: saline
[8] = dose: 100.0 mg/kg/injection, schedule: Q04DX003 (ip), vehicle: saline
[9] = dose: 200.0 mg/kg/injection, schedule: Q01DX009 (ip), vehicle: saline
[10] = dose: 200.0 mg/kg/injection, schedule: Q04DX003 (ip), vehicle: saline
[11] = dose: 400.0 mg/kg/injection, schedule: Q04DX003 (ip), vehicle: saline

Measured: T/C

CCCCCC(=O)N1CCCCC1C (stereo unspecified)
inactive: dose: 50.0 mg/kg/injection, schedule: Q01DX001 (ip), vehicle: carboxymethylcellulose (CMC) 97 % of control | dose: 50.0 mg/kg/injection, schedule: Q01DX009 (ip), vehicle: carboxymethylcellulose (CMC) 95 % of control and 97 % of control | dose: 50.0 mg/kg/injection, schedule: Q04DX002 (ip), vehicle: carboxymethylcellulose (CMC) 96 % of control and 98 % of control | dose: 50.0 mg/kg/injection, schedule: Q04DX003 (ip), vehicle: carboxymethylcellulose (CMC) 98 % of control | dose: 100.0 mg/kg/injection, schedule: Q01DX001 (ip), vehicle: carboxymethylcellulose (CMC) 103 % of control | dose: 100.0 mg/kg/injection, schedule: Q01DX009 (ip), vehicle: carboxymethylcellulose (CMC) 96 % of control and 98 % of control | dose: 100.0 mg/kg/injection, schedule: Q04DX002 (ip), vehicle: carboxymethylcellulose (CMC) 97 % of control and 109 % of control and 92 % of control | dose: 100.0 mg/kg/injection, schedule: Q04DX003 (ip), vehicle: carboxymethylcellulose (CMC) 93 % of control | dose: 200.0 mg/kg/injection, schedule: Q01DX001 (ip), vehicle: carboxymethylcellulose (CMC) 90 % of control | dose: 200.0 mg/kg/injection, schedule: Q04DX002 (ip), vehicle: carboxymethylcellulose (CMC) 100 % of control and 86 % of control | dose: 200.0 mg/kg/injection, schedule: Q04DX003 (ip), vehicle: carboxymethylcellulose (CMC) 95 % of control

Clc1ccc(CC[PH+]2CC=CC2)cc1.Clc1ccc(CC[PH+]2CC=CC2)cc1.[Cl][Ni][Cl]
inactive: [1] 107 % of control

C=CCN(CC=C)P(N(CC=C)CC=C)N(CC=C)CC=C
inactive: dose: 75.0 mg/kg/injection, schedule: Q01DX009 (ip), vehicle: saline 98 % of control | dose: 150.0 mg/kg/injection, schedule: Q01DX009 (ip), vehicle: saline 96 % of control

CC(=O)Nc1cccc(Cl)c1C
inactive: dose: 100.0 mg/kg/injection, schedule: Q01DX009 (ip), vehicle: saline sonified 97 % of control | dose: 100.0 mg/kg/injection, schedule: Q04DX003 (ip), vehicle: saline sonified 95 % of control | dose: 200.0 mg/kg/injection, schedule: Q01DX009 (ip), vehicle: saline sonified 91 % of control | dose: 200.0 mg/kg/injection, schedule: Q04DX003 (ip), vehicle: saline sonified 95 % of control | dose: 400.0 mg/kg/injection, schedule: Q01DX009 (ip), vehicle: saline sonified 91 % of control | dose: 400.0 mg/kg/injection, schedule: Q04DX003 (ip), vehicle: saline sonified 97 % of control

COc1cc(OC)c(N=Cc2ccc([N+](=O)[O-])s2)cc1Cl
inactive: [2] 101 % of control | [3] 101 % of control | [4] 95 % of control

Nc1nc(N)nc(Cl)n1
inactive: [1] 98 % of control | dose: 400.0 mg/kg/injection, schedule: Q04DX002 (ip), vehicle: saline with Tween-80 95 % of control

COc1ccc(CCOC(C)=O)cc1OC
inactive: dose: 100.0 mg/kg/injection, schedule: Q04DX002 (ip), vehicle: Klucel (hydroxypropylcellulose) (HPC) 102 % of control | dose: 200.0 mg/kg/injection, schedule: Q04DX002 (ip), vehicle: Klucel (hydroxypropylcellulose) (HPC) 97 % of control | dose: 400.0 mg/kg/injection, schedule: Q04DX002 (ip), vehicle: Klucel (hydroxypropylcellulose) (HPC) 97 % of control

N#CCC(=O)NCc1ccco1
inactive: dose: 50.0 mg/kg/injection, schedule: Q01DX009 (ip), vehicle: saline with Tween-80 106 % of control | [5] 103 % of control | [1] 104 % of control | dose: 200.0 mg/kg/injection, schedule: Q04DX002 (ip), vehicle: saline with Tween-80 114 % of control

Cc1cc(Cc2ccccc2)n[nH]1
inactive: dose: 100.0 mg/kg/injection, schedule: Q01DX001 (ip), vehicle: Klucel (hydroxypropylcellulose) (HPC) 107 % of control | dose: 200.0 mg/kg/injection, schedule: Q01DX001 (ip), vehicle: Klucel (hydroxypropylcellulose) (HPC) 102 % of control | dose: 400.0 mg/kg/injection, schedule: Q01DX001 (ip), vehicle: Klucel (hydroxypropylcellulose) (HPC) 108 % of control

O=C(Oc1ccccc1)c1cc(Br)c2ccccc2c1O
inactive: [5] 96 % of control | [2] 89 % of control | dose: 200.0 mg/kg/injection, schedule: Q01DX009 (ip), vehicle: saline with Tween-80 95 % of control | [3] 97 % of control | dose: 400.0 mg/kg/injection, schedule: Q01DX009 (ip), vehicle: saline with Tween-80 93 % of control | [4] 87 % of control

c1ccc(CN2CCCCC2)nc1
inactive: dose: 10.0 mg/kg/injection, schedule: Q01DX009 (ip), vehicle: Klucel (hydroxypropylcellulose) (HPC) 103 % of control | dose: 10.0 mg/kg/injection, schedule: Q04DX003 (ip), vehicle: Klucel (hydroxypropylcellulose) (HPC) 92 % of control | dose: 20.0 mg/kg/injection, schedule: Q01DX009 (ip), vehicle: Klucel (hydroxypropylcellulose) (HPC) 91 % of control | dose: 20.0 mg/kg/injection, schedule: Q04DX003 (ip), vehicle: Klucel (hydroxypropylcellulose) (HPC) 97 % of control | dose: 40.0 mg/kg/injection, schedule: Q04DX003 (ip), vehicle: Klucel (hydroxypropylcellulose) (HPC) 97 % of control

Cn1ccccc1=O
inactive: dose: 100.0 mg/kg/injection, schedule: Q04DX002 (ip), vehicle: saline 104 % of control | dose: 200.0 mg/kg/injection, schedule: Q04DX002 (ip), vehicle: saline 98 % of control | dose: 400.0 mg/kg/injection, schedule: Q04DX002 (ip), vehicle: saline 104 % of control

O=S(=O)(O)CCO
inactive: [6] 99 % of control | [7] 95 % of control | [8] 97 % of control | [9] 99 % of control | [10] 101 % of control | [11] 101 % of control

O=C(c1ccccc1Br)N1CCN=C(c2ccccc2)C=C1c1ccccc1
inactive: [8] 93 % of control | [10] 94 % of control | [11] 100 % of control

CCCCCCCCCC(=O)Oc1nncc(=O)[nH]1
inactive: [6] 87 % of control | [7] 97 % of control | [9] 104 % of control

CCCC1(CC(C)CC)C(=O)NC(=O)NC1=O (stereo unspecified)
inactive: dose: 75.0 mg/kg/injection, schedule: Q01DX001 (ip), vehicle: saline 100 % of control | dose: 150.0 mg/kg/injection, schedule: Q01DX001 (ip), vehicle: saline 96 % of control | dose: 300.0 mg/kg/injection, schedule: Q01DX001 (ip), vehicle: saline 98 % of control

COc1ccc2c3c([nH]c2c1)-c1ccccc1SC3
inactive: dose: 100.0 mg/kg/injection, schedule: Q04DX003 (ip), vehicle: acetone 101 % of control | dose: 200.0 mg/kg/injection, schedule: Q04DX003 (ip), vehicle: acetone 106 % of control | dose: 400.0 mg/kg/injection, schedule: Q04DX003 (ip), vehicle: acetone 101 % of control

O=C(Nc1ccccc1)c1nccc2ccccc12
inactive: dose: 100.0 mg/kg/injection, schedule: Q01DX001 (ip), vehicle: steriod suspending solution 117 % of control | dose: 200.0 mg/kg/injection, schedule: Q01DX001 (ip), vehicle: steriod suspending solution 109 % of control | dose: 400.0 mg/kg/injection, schedule: Q01DX001 (ip), vehicle: steriod suspending solution 108 % of control

Cc1ccc(S(=O)(=O)/C(Cl)=C(/Cl)S(=O)(=O)c2ccc(C)cc2)cc1
inactive: dose: 3.12 mg/kg/injection, schedule: Q01DX009 (ip), vehicle: saline 95 % of control | dose: 6.25 mg/kg/injection, schedule: Q01DX009 (ip), vehicle: saline 97 % of control | dose: 6.25 mg/kg/injection, schedule: Q04DX003 (ip), vehicle: saline 88 % of control | dose: 12.5 mg/kg/injection, schedule: Q01DX001 (ip), vehicle: saline 94 % of control | dose: 12.5 mg/kg/injection, schedule: Q01DX009 (ip), vehicle: saline with Tween-80 95 % of control | dose: 12.5 mg/kg/injection, schedule: Q04DX003 (ip), vehicle: saline 92 % of control | dose: 25.0 mg/kg/injection, schedule: Q01DX001 (ip), vehicle: saline 92 % of control | dose: 25.0 mg/kg/injection, schedule: Q01DX009 (ip), vehicle: saline with Tween-80 89 % of control | dose: 200.0 mg/kg/injection, schedule: Q01DX001 (ip), vehicle: saline 103 % of control

COc1cc(OC)c(C(=O)c2ccccc2N)c(OC)c1
inactive: dose: 100.0 mg/kg/injection, schedule: Q04DX003 (ip), vehicle: saline with Tween-80 89 % of control | dose: 200.0 mg/kg/injection, schedule: Q04DX003 (ip), vehicle: saline with Tween-80 87 % of control
